Key:
[1] = molecular target: T1, GABA-A receptor; alpha-5/beta-3/gamma-2 (Homo sapiens, UniProt P31644+P18507+P28472); test: Displacement of [3H]flunitrazepam from human recombinant GABAA alpha-5-beta-3-gamma-2 receptor expressed in HEK cells by liquid scintillation counting
T1 sequence (P31644 whole entry): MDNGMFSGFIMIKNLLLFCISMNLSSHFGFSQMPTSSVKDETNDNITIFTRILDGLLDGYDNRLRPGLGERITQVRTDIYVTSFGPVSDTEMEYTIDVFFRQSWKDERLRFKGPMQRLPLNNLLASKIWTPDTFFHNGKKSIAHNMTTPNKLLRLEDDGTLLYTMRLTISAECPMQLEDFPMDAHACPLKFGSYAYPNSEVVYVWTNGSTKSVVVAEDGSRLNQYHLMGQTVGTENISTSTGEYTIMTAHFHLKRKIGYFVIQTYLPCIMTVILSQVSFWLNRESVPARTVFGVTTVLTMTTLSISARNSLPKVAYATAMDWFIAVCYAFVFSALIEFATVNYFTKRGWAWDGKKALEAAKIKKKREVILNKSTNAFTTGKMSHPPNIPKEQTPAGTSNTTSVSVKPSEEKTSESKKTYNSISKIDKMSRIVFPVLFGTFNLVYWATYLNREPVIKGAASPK
T1 sequence (P18507 whole entry): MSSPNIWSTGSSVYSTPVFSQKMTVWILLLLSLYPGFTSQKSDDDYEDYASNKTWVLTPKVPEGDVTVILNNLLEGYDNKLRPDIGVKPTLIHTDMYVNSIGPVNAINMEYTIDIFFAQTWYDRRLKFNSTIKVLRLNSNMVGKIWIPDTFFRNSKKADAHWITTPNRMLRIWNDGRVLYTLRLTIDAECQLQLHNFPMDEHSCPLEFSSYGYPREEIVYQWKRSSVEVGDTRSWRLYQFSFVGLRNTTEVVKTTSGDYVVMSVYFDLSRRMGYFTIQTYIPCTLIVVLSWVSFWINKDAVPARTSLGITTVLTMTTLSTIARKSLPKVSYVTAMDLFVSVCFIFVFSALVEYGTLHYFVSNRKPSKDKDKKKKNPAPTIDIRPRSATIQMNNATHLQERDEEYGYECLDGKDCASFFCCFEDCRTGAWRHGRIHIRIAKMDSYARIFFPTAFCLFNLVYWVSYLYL
T1 sequence (P28472 whole entry): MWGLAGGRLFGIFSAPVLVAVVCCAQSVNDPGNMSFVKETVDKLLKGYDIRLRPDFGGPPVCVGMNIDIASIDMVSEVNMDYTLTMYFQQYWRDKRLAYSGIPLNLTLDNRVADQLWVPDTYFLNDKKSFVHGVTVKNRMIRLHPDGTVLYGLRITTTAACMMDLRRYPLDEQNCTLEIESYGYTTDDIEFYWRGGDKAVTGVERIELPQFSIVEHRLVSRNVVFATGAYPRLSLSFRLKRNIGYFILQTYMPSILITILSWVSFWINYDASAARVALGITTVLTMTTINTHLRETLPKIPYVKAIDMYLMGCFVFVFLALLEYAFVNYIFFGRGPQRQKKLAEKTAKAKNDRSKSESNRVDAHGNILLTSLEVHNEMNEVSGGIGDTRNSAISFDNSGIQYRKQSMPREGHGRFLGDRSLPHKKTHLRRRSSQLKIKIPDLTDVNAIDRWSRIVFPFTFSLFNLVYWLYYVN

[2] = molecular target: T2, Gamma-aminobutyric acid receptor subunit alpha-1/beta-3/gamma-2 (Homo sapiens, UniProt P14867+P18507+P28472); test: Displacement of [3H]flunitrazepam from human recombinant GABAA alpha-1-beta-3-gamma-2 receptor expressed in HEK cells by liquid scintillation counting
T2 sequence (P14867 whole entry): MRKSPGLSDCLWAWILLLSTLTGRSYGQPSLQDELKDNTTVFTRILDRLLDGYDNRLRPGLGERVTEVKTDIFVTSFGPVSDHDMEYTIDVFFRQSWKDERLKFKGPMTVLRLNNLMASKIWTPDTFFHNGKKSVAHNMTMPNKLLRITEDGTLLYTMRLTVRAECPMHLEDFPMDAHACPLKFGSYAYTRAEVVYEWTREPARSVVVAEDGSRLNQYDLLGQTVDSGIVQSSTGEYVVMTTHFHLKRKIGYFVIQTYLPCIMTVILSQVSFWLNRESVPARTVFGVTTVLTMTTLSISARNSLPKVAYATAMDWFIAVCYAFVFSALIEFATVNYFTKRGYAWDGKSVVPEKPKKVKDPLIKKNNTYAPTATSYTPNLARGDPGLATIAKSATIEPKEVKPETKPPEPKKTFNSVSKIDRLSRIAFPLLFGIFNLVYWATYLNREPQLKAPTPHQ
T2 sequence (P18507 whole entry): T1 sequence (P18507 whole entry)
T2 sequence (P28472 whole entry): T1 sequence (P28472 whole entry)

[3] = molecular target: T3, GABA-A receptor; alpha-2/beta-3/gamma-2 (Homo sapiens, UniProt P47869+P18507+P28472); test: Displacement of [3H]flunitrazepam from human recombinant GABAA alpha-2-beta-3-gamma-2 receptor expressed in HEK cells by liquid scintillation counting
T3 sequence (P47869 whole entry): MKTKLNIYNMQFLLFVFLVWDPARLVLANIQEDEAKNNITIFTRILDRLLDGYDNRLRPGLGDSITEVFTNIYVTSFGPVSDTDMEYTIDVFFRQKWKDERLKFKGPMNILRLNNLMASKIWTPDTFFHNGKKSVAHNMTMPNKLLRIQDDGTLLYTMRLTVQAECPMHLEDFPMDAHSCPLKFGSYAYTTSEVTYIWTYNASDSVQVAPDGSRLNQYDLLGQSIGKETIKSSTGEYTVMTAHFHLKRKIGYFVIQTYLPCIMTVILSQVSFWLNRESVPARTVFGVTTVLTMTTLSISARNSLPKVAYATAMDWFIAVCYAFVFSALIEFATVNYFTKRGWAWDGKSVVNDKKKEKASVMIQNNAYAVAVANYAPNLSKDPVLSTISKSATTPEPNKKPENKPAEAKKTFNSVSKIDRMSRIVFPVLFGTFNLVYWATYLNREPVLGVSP
T3 sequence (P18507 whole entry): T1 sequence (P18507 whole entry)
T3 sequence (P28472 whole entry): T1 sequence (P28472 whole entry)

[4] = molecular target: T4, Gamma-aminobutyric acid receptor subunit alpha-3/beta-3/gamma-2 (Homo sapiens, UniProt P34903+P18507+P28472); test: Displacement of [3H]flunitrazepam from human recombinant GABAA alpha-3-beta-3-gamma-2 receptor expressed in HEK cells by liquid scintillation counting
T4 sequence (P34903 whole entry): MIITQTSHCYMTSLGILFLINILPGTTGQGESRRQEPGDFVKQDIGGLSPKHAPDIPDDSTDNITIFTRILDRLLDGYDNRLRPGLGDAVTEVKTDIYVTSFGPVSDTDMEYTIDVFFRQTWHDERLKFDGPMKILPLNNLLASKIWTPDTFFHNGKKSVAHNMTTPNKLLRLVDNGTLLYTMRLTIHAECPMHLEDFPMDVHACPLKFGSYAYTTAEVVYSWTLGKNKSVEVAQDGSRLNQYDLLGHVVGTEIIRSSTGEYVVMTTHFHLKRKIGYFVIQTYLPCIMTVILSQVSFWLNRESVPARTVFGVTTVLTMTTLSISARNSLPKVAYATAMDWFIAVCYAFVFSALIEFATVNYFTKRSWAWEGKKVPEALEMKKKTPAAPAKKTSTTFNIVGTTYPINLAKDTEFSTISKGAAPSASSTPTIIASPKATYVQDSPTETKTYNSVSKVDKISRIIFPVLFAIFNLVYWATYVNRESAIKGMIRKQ
T4 sequence (P18507 whole entry): T1 sequence (P18507 whole entry)
T4 sequence (P28472 whole entry): T1 sequence (P28472 whole entry)

[5] = molecular target: GABA A receptor alpha-4/beta-3/gamma-2 (Homo sapiens, UniProt P48169+P18507+P28472); test: Displacement of [3H]flunitrazepam from human recombinant GABAA alpha-4-beta-3-gamma-2 receptor expressed in HEK cells by liquid scintillation counting
Sequence of GABA A receptor alpha-4/beta-3/gamma-2 (P48169 whole entry, one chain of several): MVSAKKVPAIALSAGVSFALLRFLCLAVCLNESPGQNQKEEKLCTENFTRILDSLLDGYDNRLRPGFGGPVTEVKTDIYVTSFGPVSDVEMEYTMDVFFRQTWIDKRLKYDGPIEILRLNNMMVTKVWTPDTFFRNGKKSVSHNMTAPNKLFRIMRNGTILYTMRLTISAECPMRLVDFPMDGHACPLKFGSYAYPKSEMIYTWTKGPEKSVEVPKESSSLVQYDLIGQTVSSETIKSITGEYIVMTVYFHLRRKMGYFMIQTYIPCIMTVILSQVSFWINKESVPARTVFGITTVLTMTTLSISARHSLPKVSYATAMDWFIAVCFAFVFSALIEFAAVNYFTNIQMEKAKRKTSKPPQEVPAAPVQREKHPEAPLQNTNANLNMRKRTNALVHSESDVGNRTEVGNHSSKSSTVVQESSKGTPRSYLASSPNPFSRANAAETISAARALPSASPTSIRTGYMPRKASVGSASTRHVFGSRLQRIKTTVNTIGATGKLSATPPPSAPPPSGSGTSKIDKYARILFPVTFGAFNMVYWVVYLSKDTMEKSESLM

[6] = molecular target: Gamma-aminobutyric acid receptor subunit alpha-6/beta-3/gamma-2 (Homo sapiens, UniProt Q16445+P18507+P28472); test: Displacement of [3H]flunitrazepam from human recombinant GABAA alpha-6-beta-3-gamma-2 receptor expressed in HEK cells by liquid scintillation counting
Sequence of Gamma-aminobutyric acid receptor subunit alpha-6/beta-3/gamma-2 (Q16445 whole entry, one chain of several): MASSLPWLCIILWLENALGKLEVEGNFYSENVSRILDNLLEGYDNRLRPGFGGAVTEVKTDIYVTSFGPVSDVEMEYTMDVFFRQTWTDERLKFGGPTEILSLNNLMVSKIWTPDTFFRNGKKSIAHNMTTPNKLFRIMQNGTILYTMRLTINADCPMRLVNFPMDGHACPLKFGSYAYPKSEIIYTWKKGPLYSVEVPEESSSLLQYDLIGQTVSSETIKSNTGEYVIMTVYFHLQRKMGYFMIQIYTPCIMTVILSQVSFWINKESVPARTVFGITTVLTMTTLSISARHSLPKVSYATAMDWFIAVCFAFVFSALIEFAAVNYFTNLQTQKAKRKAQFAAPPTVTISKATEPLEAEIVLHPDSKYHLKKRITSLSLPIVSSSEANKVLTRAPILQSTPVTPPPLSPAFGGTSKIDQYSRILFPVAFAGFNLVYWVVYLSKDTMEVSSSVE

Ki [5] [nM]	Ki [6] [µM]	Compound	Ki [1] [nM]	Ki [2] [nM]	Ki [3] [nM]	Ki [4] [nM]
		CCC(OC(=O)c1cc2c(cn1)[nH]c1ccccc12)C(F)(F)F (stereo not given) [1,1,1-trifluorobutan-2-yl 9H-pyrido[3,4-b]indole-3-carboxylate]	1000	1000	1000	1000
3000	5	CC(OC(=O)c1cc2c(cn1)[nH]c1ccccc12)C(Cl)(Cl)Cl (stereo not given) [1,1,1-trichloropropan-2-yl 9H-pyrido[3,4-b]indole-3-carboxylate]	2000	2000	2000	2000
